Data on five molecules can be found in patent US10412960B2, “Microparticles and nanoparticles made up of hydrophobized polysaccharides and an alpha-cyclodextrine” (priority 2012, dated 2019).

The nature of data set [1]: Encapsulation of active ingredients in the particles. It is filed as physicochemical. The procedure:
The protocol adopted for encapsulating the hydrophilic active ingredients is to dissolve the active ingredient in water at an initial concentration as indicated in Table 5 and then adding the amphiphilic polysaccharide and the α-cyclodextrin. The mixture is magnetically stirred for 3 days. After this mixing for 3 days, the concentration of the active ingredient that has not been encapsulated is determined in the supernatant of the preparation. The supernatant is separated either by simple sedimentation or by centrifugation of the microparticles, or after ultracentrifugation in the case of the nanoparticles.
The protocol adopted for encapsulating the hydrophobic active ingredients is to dissolve the active ingredient in an ethanol/water mixture at an initial concentration as shown in Table 26 and then add the amphiphilic polysaccharide and the α-cyclodextrin. The mixture is maintained under magnetic stirring for 3 days. After mixing for 3 days, the concentration of the active ingredient that has not been encapsulated is determined in the supernatant of the preparation. The supernatant is separated either by simple sedimentation or by centrifugation of the microparticles, or after ultracentrifugation in the case of the nanoparticles.

Data set [2] relates to bacterial adhesion. The conditions noted are these: heparin coating of abiotic surfaces; cited from earlier work.
For data set [3], the system named is Candida albicans. As to conditions: heparin coating of abiotic surfaces; cited from earlier work.
Where [4] appears, read: polysaccharide MC8, initial concentration 194 g/L, water.
[5] abbreviates: polysaccharide MC9, initial concentration 2.31 g/L, water.
Setting [6] is: polysaccharide MC6, ethanol/water 40/60 % v/v, initial concentration 3.5 g/L.
Setting [7] is: polysaccharide MC6, initial concentration 21.7 g/L, water.
[8] abbreviates: polysaccharide MC8, initial concentration 21.7 g/L, water.
Where [9] appears, read: polysaccharide MC9, initial concentration 2.33 g/L, water.
Setting [10] is: polysaccharide MC11, initial concentration 2.34 g/L, water.

In the case of `Cc1ncc(CO)c(CO)c1O.Cl` [Vitamin B6], in data set [1] (setting [4]), the Concentration encapsulated was determined as 104650 µg/mL and the Encapsulation yield is reported as 53.94%. Moreover, in data set [1] (setting [5]), the Concentration encapsulated was determined as 1520 µg/mL and the Encapsulation yield is 65.82%.
In data set [1] (setting [6]), `CC(C(=O)O)c1cccc(C(=O)c2ccccc2)c1` (stereo not shown) [Ketoprofen] returned an Encapsulated concentration of 1.09 g/L and an Encapsulation yield of 31.12%.
`Cn1c(=O)c2c(ncn2C)n(C)c1=O` [Caffeine]: the Concentration encapsulated in data set [1] (setting [7]) turned out to be 3590 µg/mL; in data set [1] (setting [8]), 3150 µg/mL; in data set [1] (setting [9]), 510 µg/mL. The Encapsulation yield in data set [1] (setting [7]) was 16.55%; in data set [1] (setting [8]), 17.53%; in data set [1] (setting [9]), 22.23%.
With Heparin, the “reduction of bacterial adhesion” value in data set [2] is reported as 90%. Besides, in data set [3], the “reduction of adhesion of Candida albicans” value is “approximately 50%”.
In data set [1] (setting [10]), `CC(=O)Nc1ccc(O)cc1` [Paracetamol] registered a Concentration encapsulated of 780 µg/mL and an Encapsulation yield of 33.33%.
